How the values were obtained:
wild oat [1] = experiment: Post-emergence trial in the greenhouse, wild oat (Example VII, Table VII); format: in vivo; conditions: 31 kg/hectare, emulsion concentrate, 4 weeks after treatment
Protocol: (§1) The results and also the results of all following examples were evaluated 4 weeks later according to the following scheme:
In a greenhouse some of the compounds of the invention were sprayed on plants of wild oat, the compounds being used as emulsion concentrates.
Post-emergence trial in the greenhouse
Effect on wild oat 4 weeks after treatment
Dose 31 kg/hectare of active compound (as emulsion

Avena fatua [2] = experiment: Post-emergence treatment, pots on a site without roof, Avena fatua (Example IV, Table IV); format: in vivo; conditions: for Effect (evaluation scheme), Avena fatua: post-emergence, emulsion concentrate
Protocol: as §1
(§2) In summer a further experiment was carried through under similar conditions to compare the effect of compound 1a with that of comparative compound A. Both compounds were used in the form of an emulsion concentrate (Table IV).
(§3) Post-emergence treatment (evaluation scheme); experiment
(§4) in pots on a site without roof

Echinochloa [3] = experiment: Post-emergence greenhouse pot trial, Echinochloa (Example I, Table I); format: in vivo; conditions: greenhouse pots, 4 weeks
Protocol: (§5) Seeds of weed grasses were sown in pots filled with loamy soil and placed in the greenhouse for germination and emergence. As soon as the plants had developed 3 or 4 leaves, they were sprayed with wettable powder formulations, suspended in water, of compounds according to the invention.
as §1
(§6) 4 is still considered an acceptable herbicidal effect in weeds and a satisfactory preserving effect in crop plants (cf. Bolle, Nachrichtenblatt des Deutschen Pflanzenschutzdienstes 16, 1964, pages 92-94).
(§7) Effect on weed grasses in a post-emergence trial in pots
(§8) in the greenhouse (Evaluation scheme)

Avena ludoviciana = experiment: Post-emergence treatment, pots on a site without roof, Avena ludoviciana (Example IV, Table IV); format: in vivo; conditions: for Effect (evaluation scheme), Avena ludoviciana: post-emergence, emulsion concentrate
Protocol: as §1, §2, §3, §4

Setaria [4] = experiment: Post-emergence greenhouse pot trial, Setaria (Example I, Table I); format: in vivo; conditions: greenhouse pots, 4 weeks
Protocol: as §5, §1, §6, §7, §8

weed grasses = experiment: Pre-emergence greenhouse pot trial, weed grasses overall (Example V); format: in vivo; conditions: in words
Protocol: as §1
(§9) In a greenhouse the compounds to be tested were sprayed on the surface of the soil directly after sowing. […] Dicotyledonous crop plants (the same as used in Example I) were not damaged by the applied amounts.
(§10) Effect on weed grasses in a pre-emergence process (evalua-
(§11) tion scheme) experiment in pots in the greenhouse.

Avena fatua [5] = experiment: Post-emergence trial in two stages, pots on a site without roof, wild oat (Example II, Table II); format: in vivo; conditions: for 90% effective dose: probit method; for Effect on wild oat (evaluation), Avena fatua: post-emergence
Protocol: as §1
(§12) The amounts of active compound required for a 90% effect, determined by the probit method (cf. Bliss, Annals of Applied Biology, 22 1935), show very distincly the difference between the compound of the invention and the comparative compound. […] None of the compounds did any harm to the wheat.
(§13) Post-emergence treatment in two different stages of development
(§14) Experiments in pots on a site without roof
(§15) stage 1: 3 to 4 leaves with beginning growth of side
(§16) stage 2: main tillering to terminated tillering.

Digitaria [6] = experiment: Pre-emergence greenhouse pot trial, Digitaria (Example V, Table V); format: in vivo
Protocol: as §1, §9, §10, §11

Setaria [7] = experiment: Pre-emergence greenhouse pot trial, Setaria (Example V, Table V); format: in vivo
Protocol: as §1, §9, §10, §11

wild oat [8] = experiment: Field trial in wild oat, post-emergence treatment (Example VI, Table VI); format: in vivo; conditions: for efficiency in % (counting of panicles) / evaluation 5 weeks after treatment: post-emergence
Protocol: In a field trial compound 1a of the invention was sprayed in the form of a 36% wettable powder formulation onto wild oat (single system, natural growth) after the plants had developed 3 or 4 leaves.
Three lots each were treated with different concentrations of the active compound and the comparative compound, the amount of spray liquor applied being 600 liters per hectare. Besides the usual visual evaluation at the end of the trial, the number of panicles per square meter was counted. In the untreated lots 400 to 500 panicles were counted per square meter, i.e. the field was heavily infected.
The relations are still more distinct when the amount of active compound required for a 90% effect is determined by the probit method (graphical evaluation) mentioned in Example II.

Alopecurus myos. = experiment: Post-emergence treatment, pots on a site without roof, blackgrass (Example IV, Table IV); format: in vivo, annual black-grass (Alopecurus); conditions: for Effect (evaluation scheme), Alopecurus myos.: post-emergence, emulsion concentrate
Protocol: as §1, §2, §3, §4

spring barley = experiment: Post-emergence treatment, pots on a site without roof, spring barley (Example IV, Table IV); format: in vivo; conditions: emulsion concentrate; further: ranges in brackets are in %
Protocol: as §1, §2, §3, §4

spring wheat [9] = experiment: Post-emergence trial in two stages, pots on a site without roof, spring wheat (Example II, Table II); format: in vivo
Protocol: as §1, §12, §13, §14, §15, §16

spring wheat [10] = experiment: Post-emergence treatment, pots on a site without roof, spring wheat (Example IV, Table IV); format: in vivo; conditions: emulsion concentrate; further: ranges in brackets are in %
Protocol: as §1, §2, §3, §4

sugar beet = experiment: Post emergence treatment in two stages, boxes on a site without roof, sugar beet (Table III); format: in vivo; conditions: 0.9 kg/hectare
Protocol: as §1
(§17) Effect on wild oat and sugar beet
(§18) Post emergence treatment in two stages of development
(§19) boxes 20 × 24 × 22 cm in size on a site without roof

Digitaria [11] = experiment: Post-emergence greenhouse pot trial, Digitaria (Example I, Table I); format: in vivo; conditions: greenhouse pots, 4 weeks
Protocol: as §5, §1, §6, §7, §8

Lolium [12] = experiment: Pre-emergence greenhouse pot trial, Lolium (Example V, Table V); format: in vivo
Protocol: as §1, §9, §10, §11

Lolium [13] = experiment: Post-emergence greenhouse pot trial, Lolium (Example I, Table I); format: in vivo; conditions: greenhouse pots, 4 weeks
Protocol: as §5, §1, §6, §7, §8

Alopecurus = experiment: Post-emergence greenhouse pot trial, annual blackgrass (Example I, Table I); format: in vivo, annual blackgrass (Alopecurus); conditions: greenhouse pots, 4 weeks
Protocol: as §5, §1, §6, §7, §8

Avena fatua [14] = experiment: Post emergence treatment in two stages, boxes on a site without roof, wild oat (Table III); format: in vivo; conditions: 0.9 kg/hectare
Protocol: as §1, §17, §18, §19

Echinochloa [15] = experiment: Pre-emergence greenhouse pot trial, Echinochloa (Example V, Table V); format: in vivo
Protocol: as §1, §9, §10, §11

**Q.** What does the source list for `COC(=O)C(C)Oc1ccc(Oc2ccc(Br)cc2Cl)cc1` (stereo not drawn) [Compound 1a, Methyl-4-(2'-chloro-4'-bromophenoxy)-α-phenoxy-propionate]?
**A.** effect (number) on wild oat (wild oat [1]): 1 (100); Effect (evaluation scheme), Avena fatua (Avena fatua [2]; 0.225 kg/hectare): 7 (65.0 to <75.0); Effect (evaluation scheme), Avena fatua (Avena fatua [2]; 0.45 kg/hectare): 6 (75.0 to <85.0); Effect (evaluation scheme), Avena fatua (Avena fatua [2]; 0.9 kg/hectare): 5 (85.0 to <90.0); effect on Avena fatua compared with comparative compound (Avena fatua [2]; in words): distinctly better effect than the comparative compound; Effect on weed grasses (evaluation scheme number), Echinochloa (Echinochloa [3]; 0.15 kg/hectare): 2 (97.5 to <100); Effect on weed grasses (evaluation scheme number), Echinochloa (Echinochloa [3]; 0.62 kg/hectare): 2 (97.5 to <100); Effect on weed grasses (evaluation scheme number), Echinochloa (Echinochloa [3]; 2.5 kg/hectare): 1 (100); Effect (evaluation scheme), Avena ludoviciana (Avena ludoviciana; 0.225 kg/hectare): 6 (75.0 to <85.0); Effect (evaluation scheme), Avena ludoviciana (Avena ludoviciana; 0.45 kg/hectare): 5 (85.0 to <90.0); Effect (evaluation scheme), Avena ludoviciana (Avena ludoviciana; 0.9 kg/hectare): 4 (90.0 to <95.0); effect on Avena ludoviciana compared with comparative compound (Avena ludoviciana; in words): distinctly better effect than the comparative compound; Effect on weed grasses (evaluation scheme number), Setaria (Setaria [4]; 0.15 kg/hectare): 2 (97.5 to <100); Effect on weed grasses (evaluation scheme number), Setaria (Setaria [4]; 0.62 kg/hectare): 1 (100); Effect on weed grasses (evaluation scheme number), Setaria (Setaria [4]; 2.5 kg/hectare): 1 (100); effect in pre-emergence treatment compared with comparative compound A (weed grasses): better effect; dosage sufficient with respect to the comparative compound (90% effect) (Avena fatua [5]; applied in the second stage): about half the dosage; effect on wild oat compared with compound A (Avena fatua [5]; emulsion concentrate of 36% strength, in words): better effect on wild oat than compound A; 90% effective dose (Avena fatua [5]; stage 1 (3 to 4 leaves with beginning growth of side)): 0.34 kg per hectare; Effect on wild oat (evaluation), Avena fatua (Avena fatua [5]; stage 1, 0.112 kg/hectare): 6 (75.0 to <85.0); Effect on wild oat (evaluation), Avena fatua (Avena fatua [5]; stage 1, 0.225 kg/hectare): 5 (85.0 to <90.0); Effect on wild oat (evaluation), Avena fatua (Avena fatua [5]; stage 1, 0.45 kg/hectare): 4 (90.0 to <95.0); Effect on wild oat (evaluation), Avena fatua (Avena fatua [5]; stage 1, 0.9 kg/hectare): 3 (95.0 to <.97.5); 90% effective dose (Avena fatua [5]; stage 2 (main tillering to terminated tillering)): 0.45 kg per hectare; Effect on wild oat (evaluation), Avena fatua (Avena fatua [5]; stage 2, 0.112 kg/hectare): 7 (65.0 to <75.0); Effect on wild oat (evaluation), Avena fatua (Avena fatua [5]; stage 2, 0.225 kg/hectare): 6 (75.0 to <85.0); Effect on wild oat (evaluation), Avena fatua (Avena fatua [5]; stage 2, 0.45 kg/hectare): 4 (90.0 to <95.0); Effect on wild oat (evaluation), Avena fatua (Avena fatua [5]; stage 2, 0.9 kg/hectare): 3 (95.0 to <.97.5); Effect on weed grasses (evaluation scheme), Digitaria (Digitaria [6]; 0.62 kg/hectare): 4 (90.0 to <95.0); Effect on weed grasses (evaluation scheme), Digitaria (Digitaria [6]; 1.25 kg/hectare): 2 (97.5 to <100); Effect on weed grasses (evaluation scheme), Setaria (Setaria [7]; 0.62 kg/hectare): 6 (75.0 to <85.0); Effect on weed grasses (evaluation scheme), Setaria (Setaria [7]; 1.25 kg/hectare): 4 (90.0 to <95.0); efficiency in % (counting of panicles) (wild oat [8]; 0.54 kg/hectare): 79.0%; evaluation 5 weeks after treatment (wild oat [8]; 0.54 kg/hectare): 7 (65.0 to <75.0); efficiency in % (counting of panicles) (wild oat [8]; 0.72 kg/hectare): 90.0%; evaluation 5 weeks after treatment (wild oat [8]; 0.72 kg/hectare): 5 (85.0 to <90.0); efficiency in % (counting of panicles) (wild oat [8]; 0.90 kg/hectare): 97.4%; evaluation 5 weeks after treatment (wild oat [8]; 0.90 kg/hectare): 3 (95.0 to <.97.5); amount sufficient compared with the comparative compound (90% effect) (wild oat [8]; probit method): about 1/4; amount of active compound required for a 90% effect (wild oat [8]; without wetting agent, probit method (graphical evaluation)): 0.68 kg/hectare; Effect (evaluation scheme), Alopecurus myos. (Alopecurus myos.; 0.225 kg/hectare): 5 (85.0 to <90.0); Effect (evaluation scheme), Alopecurus myos. (Alopecurus myos.; 0.45 kg/hectare): 3 (95.0 to <.97.5); Effect (evaluation scheme), Alopecurus myos. (Alopecurus myos.; 0.9 kg/hectare): 1 (100); response of annual black-grass (Alopecurus) (Alopecurus myos.; in words): responded very well; evaluation scheme, spring barley (spring barley; 0.225 kg/hectare): 1 (0); evaluation scheme, spring barley (spring barley; 0.45 kg/hectare): 1 (0); evaluation scheme, spring barley (spring barley; 0.9 kg/hectare): 1 (0); evaluation, spring wheat (spring wheat [9]; stage 1, 0.112 kg/hectare): 1 (0); evaluation, spring wheat (spring wheat [9]; stage 1, 0.225 kg/hectare): 1 (0); evaluation, spring wheat (spring wheat [9]; stage 1, 0.45 kg/hectare): 1 (0); evaluation, spring wheat (spring wheat [9]; stage 1, 0.9 kg/hectare): 2 (0 to 2.5); evaluation, spring wheat (spring wheat [9]; stage 2, 0.112 kg/hectare): 1 (0); evaluation, spring wheat (spring wheat [9]; stage 2, 0.225 kg/hectare): 1 (0); evaluation, spring wheat (spring wheat [9]; stage 2, 0.45 kg/hectare): 1 (0); evaluation, spring wheat (spring wheat [9]; stage 2, 0.9 kg/hectare): 2 (0 to 2.5); evaluation scheme, spring wheat (spring wheat [10]; 0.225 kg/hectare): 1 (0); evaluation scheme, spring wheat (spring wheat [10]; 0.45 kg/hectare): 1 (0); evaluation scheme, spring wheat (spring wheat [10]; 0.9 kg/hectare): 1 (0); sugar beet number (sugar beet; 2-leaf stage): 2 (0 to 2.5); sugar beet number (sugar beet; 4-leaf stage): 2 (0 to 2.5); Effect on weed grasses (evaluation scheme number), Digitaria (Digitaria [11]; 0.15 kg/hectare): 6 (75.0 to <85.0); Effect on weed grasses (evaluation scheme number), Digitaria (Digitaria [11]; 0.62 kg/hectare): 1 (100); Effect on weed grasses (evaluation scheme number), Digitaria (Digitaria [11]; 2.5 kg/hectare): 1 (100); Effect on weed grasses (evaluation scheme), Lolium (Lolium [12]; 0.62 kg/hectare): 6 (75.0 to <85.0); Effect on weed grasses (evaluation scheme), Lolium (Lolium [12]; 1.25 kg/hectare): 3 (95.0 to <.97.5); Effect on weed grasses (evaluation scheme number), Lolium (Lolium [13]; 0.15 kg/hectare): 5 (85.0 to <90.0); Effect on weed grasses (evaluation scheme number), Lolium (Lolium [13]; 0.62 kg/hectare): 3 (95.0 to <.97.5); Effect on weed grasses (evaluation scheme number), Lolium (Lolium [13]; 2.5 kg/hectare): 2 (97.5 to <100); Effect on weed grasses (evaluation scheme number), Alopecurus (Alopecurus; 0.15 kg/hectare): 3 (95.0 to <.97.5); Effect on weed grasses (evaluation scheme number), Alopecurus (Alopecurus; 0.62 kg/hectare): 1 (100); Effect on weed grasses (evaluation scheme number), Alopecurus (Alopecurus; 2.5 kg/hectare): 1 (100); Effect on wild oat, Avena fatua, number (Avena fatua [14]; 3-leaf stage): 1 (100); degree of damage % (evaluation by weight), Avena fatua (Avena fatua [14]; 3-leaf stage): 100%; Effect on wild oat, Avena fatua, number (Avena fatua [14]; start of tillering): 3 to 4; degree of damage % (evaluation by weight), Avena fatua (Avena fatua [14]; start of tillering): 96%; Effect on weed grasses (evaluation scheme), Echinochloa (Echinochloa [15]; 0.62 kg/hectare): 3 (95.0 to <.97.5); Effect on weed grasses (evaluation scheme), Echinochloa (Echinochloa [15]; 1.25 kg/hectare): 2 (97.5 to <100)

— patent US4370489A, “Herbicidal compounds” (Hoechst Aktiengesellschaft, priority 1976, dated 1983)
